# Source: ChEMBL document CHEMBL3046320, “Synthesis and evaluation of antioxidant activity of 2-styrylchromones” (Med Chem Res, 2013)
# Test system: Radical scavenging activity
# Experiment: Antioxidant activity assessed as DPPH radical scavenging activity by DPPH method
# Assay type: functional
# Parameters: concentration or dose not given beside the values
row,SMILES,Activity [%]
1,COc1ccc(/C=C/c2cc(=O)c3cc(Cl)c(I)cc3o2)cc1,69.1
2,COc1ccc(/C=C/c2cc(=O)c3ccc(I)cc3o2)cc1,66.8
3,O=c1cc(/C=C/c2ccccc2)oc2ccccc12,64.4
4,O=c1cc(/C=C/c2ccccc2)oc2cc(I)c(Cl)cc12,67.2
5,C/C(=C\c1cc(=O)c2cc(Cl)c(I)cc2o1)c1ccccc1,71.4
6,C/C(=C\c1cc(=O)c2ccccc2o1)c1ccccc1,65.8
7,COc1ccc(/C=C/c2cc(=O)c3cc(Br)ccc3o2)cc1,60.9
8,O=c1cc(/C=C/c2ccccc2)oc2cc(I)ccc12,65
9,COc1ccc(/C=C/c2cc(=O)c3c(O)cccc3o2)cc1,71.1
10,C/C(=C\c1cc(=O)c2ccc(I)cc2o1)c1ccccc1,69.6
